For data set [1], the target named is T1, GHSR-1a (HEK293/GHSR1a cell line) (Homo sapiens, UniProt Q92847).
T1 construct: expressed in transfected cells; host or cells: HEK293/GHSR1a cell line
Nature of the data set: Ghrelin antagonist potency (IC50) with calcium FLIPR assay, ghrelin 10 nM. Format: cell-based. The note with it: HEK293/GHSR1a, ghrelin 10 nM, read-out: Activity IC50 (ghrelin antagonist potency). In outline: (§1)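 Dye preload 30-60 min, RT or 37° C; compound in DMSO. Agonist mode: compound at t=20 sec, Ca2+ read 2 min. Antagonist mode: compound + ghrelin 10 nM at t=20 sec, 2 min read. EC50/IC50 from dose-response curves.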

The nature of data set [2]: Metabolic stability in human liver microsomes. Format: in vitro ADME. The method, then:
(§2) Metabolic Stability Study
(§3) The metabolic stability of compounds in human, dog, rat and mouse liver microsomes was performed according the experimental conditions reported below:
(§4) • a) Prepare the following 5 stock solutions: • 1. Test compound stock solutions: dilute 10 mM solution of dextromethorphan (Dtr) in DMSO, 10 mM solution of diphenhydramine (DPA) in DMSO, 10 mM solution of omeprazole (Ome) in DMSO, 10 mM solution of verapamil (Ver) in DMSO, and 10 mM of an inverse agonist compound in DMSO to 0.25 mM solution each with acetonitrile/water (70/30). • 2. Buffer: 100 mM potassium phosphate Buffer (PBS) at pH 7.4 • 3. Liver microsomes (20 mg/ml): Thaw in 37° C. water bath quickly • 4. 2000 μL: of NADPH regenerating system (1.3 mM). Place this system on ice before use:
(§5) • 5. […] The test compound concentration in the wells, measured by LC-MS/MS, represents the concentration at time=0. • f) To determine the test compound concentration when t≠0, pre-incubate the NADPH regenerating system and the incubation plate containing the remaining 320 μL of incubation mixture (microsomes protein and test compound) for 5 minutes at 37° C. • g) Start the incubation reaction by adding 80 μL NADPH regenerating system to each well containing the remaining 320 μL incubation mixture. • h) After 10 min., 30 min., and 90 min. of incubation at 37° C., transfer 100 μL of the incubation mixture (microsomes protein, test compound, and NADPH) into the wells of a stop plate pre-filled with 300 μL of the cold quench solution. Shake well. • i) Centrifuge the stop plate at 5000×g for 10 minutes. Collect and dilute the supernatant 3 times with distilled water. Sample and analyze the test compound concentration for all the wells by LC-MS/MS. Animal PK Studies via i.v. (intravenous), p.o. (orally) and s.c. (subcutaneous) administrations
A general note: Liver microsomes are vesicles of endoplasmic reticulum, rich in cytochrome P450 enzymes.

Data set [3] in a line: Metabolic stability in mouse liver microsomes. Format: in vitro ADME. How it is done:
as §2, §3, §4, §5

For data set [4], the target named is T2, recombinant human ghrelin receptor (HEK293/GRLN) (Homo sapiens, UniProt Q92847).
T2 construct: expressed in transfected cells
Nature of the data set: Ghrelin inverse agonist potency (EC50) with IP-1 (IP-One HTRF) assay. Format: cell-based. The conditions noted are these: IP-1 assay. In outline:
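HEK293/GRLN cells were seeded 18-22 hours before the test, then exposed to compound in stimulation buffer for 1 hour at 37° C, 5% CO2. IP-1 was detected by IP-One HTRF (IP1-d2 plus Tb-cryptate, 1 hour RT), reading 620 and 665 nm; the inverse agonist EC50 was derived from this.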

For data set [5], the target named is T1, GHSR-1a (HEK293/GHSR1a cell line). Nature of the data set: Ghrelin agonist potency (EC50) with calcium FLIPR assay. Format: cell-based. The procedure, abridged:
as §1

Where [6] appears, read: HEK293/GRLN, read-out: Activity EC50 (ghrelin inverse agonist potency).
Setting [7] is: HEK293/GHSR1a, read-out: Activity EC50/EMax: EC50 (ghrelin agonist potency).

Molecules are shown by their SMILES. Where two headings read alike, the source gives them in different places.

T1 sequence (Q92847 whole entry): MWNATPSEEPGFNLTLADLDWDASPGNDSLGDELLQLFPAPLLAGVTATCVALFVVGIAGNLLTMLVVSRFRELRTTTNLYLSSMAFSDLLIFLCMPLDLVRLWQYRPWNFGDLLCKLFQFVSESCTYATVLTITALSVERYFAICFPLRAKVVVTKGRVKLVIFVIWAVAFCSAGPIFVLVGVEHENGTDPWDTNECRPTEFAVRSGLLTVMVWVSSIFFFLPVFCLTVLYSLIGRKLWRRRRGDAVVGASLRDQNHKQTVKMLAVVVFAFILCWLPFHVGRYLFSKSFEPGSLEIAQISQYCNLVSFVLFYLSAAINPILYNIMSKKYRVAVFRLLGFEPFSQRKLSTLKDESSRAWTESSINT
T2 sequence (Q92847 whole entry): as above

The IC50 is the concentration needed to halve the response being measured. As to `Cc1oc(=O)oc1COC(=O)N1Cc2ccc(CS(=O)(=O)c3ccc(NC(=O)NC(C)c4ccccc4)cc3)cc2C1` (stereo not shown) [H1256, (5-methyl-2-oxo-1,3-dioxol-4-yl)methyl 5-(((4-(3-(1-phenylethyl)ureido)phenyl)sulfonyl)methyl)isoindoline-2-carboxylate], in data set [1], the IC50 is 90 nM. In data set [2], the “Metabolic Stability Study H = human” value was 268.4 µL/min/mg. The “Metabolic Stability Study M = mouse” value in data set [3] amounted to 272.6 µL/min/mg. Also, the EC50 in data set [4] (setting [6]) was 124 nM; in data set [5] (setting [7]), over 30000 nM.
With `CC(NC(=O)Nc1ccc(S(=O)(=O)Cc2ccc3c(c2)CNC3)cc1)c1cccc(Cl)c1` (stereo not shown) [H1260, 1-(1-(3-chlorophenyl)ethyl)-3-(4-((isoindolin-5-ylmethyl)sulfonyl)phenyl)urea], the IC50 in data set [1] came to 3.7 nM. For the same compound, in data set [2], the “Metabolic Stability Study H = human” value was 38.9 µL/min/mg. In data set [3], the “Metabolic Stability Study M = mouse” value was found to be 24.7 µL/min/mg. The EC50 in data set [4] (setting [6]) was 4.4 nM; in data set [5] (setting [7]) it was over 30000 nM.
Take `CC(NC(=O)Nc1ccc(S(=O)(=O)Cc2ccc3c(c2)CN(C)C3)cc1)c1cccc(Cl)c1` (stereo not shown) [H1266, 1-(1-(3-chlorophenyl)ethyl)-3-(4-(((2-methylisoindolin-5-yl)methyl)sulfonyl)phenyl)urea]: in data set [1], the IC50 is 24.2 nM. Also, in data set [2], the “Metabolic Stability Study H = human” value came to 169.4 µL/min/mg. Besides, the “Metabolic Stability Study M = mouse” value in data set [3] amounted to 106.1 µL/min/mg. Besides, the EC50 is 19.1 nM in data set [4] (setting [6]) and over 30000 nM in data set [5] (setting [7]).
Regarding `CC(NC(=O)Nc1ccc(S(=O)(=O)Cc2ccc3c(c2)CN(C)C3)cc1)c1ccccc1Cl` (stereo not shown) [H1267, 1-(1-(2-chlorophenyl)ethyl)-3-(4-(((2-methylisoindolin-5-yl)methyl)sulfonyl)phenyl)urea], in data set [1], the IC50 came out at 9.2 nM. Moreover, in data set [2], the “Metabolic Stability Study H = human” value turned out to be 109.8 µL/min/mg. In data set [3], the “Metabolic Stability Study M = mouse” value was 147.8 µL/min/mg. The EC50 in data set [4] (setting [6]) was 4.7 nM; in data set [5] (setting [7]), over 30000 nM.
Taken in the same sequence, the figures for `CC(NC(=O)Nc1ccc(S(=O)(=O)Cc2ccc3c(c2)CN(C)C3)cc1)c1ccc(F)cc1` (stereo not shown) [H1268, 1-(1-(4-fluorophenyl)ethyl)-3-(4-(((2-methylisoindolin-5-yl)methyl)sulfonyl)phenyl)urea] were 83.2 nM, 108.7 µL/min/mg, 60.5 µL/min/mg, 29.9 nM and over 30000 nM.
As to `CC(NC(=O)Nc1ccc(S(=O)(=O)Cc2ccc3c(c2)CNC3)cc1)c1cccc(F)c1` (stereo not shown) [H1269, 1-(1-(3-fluorophenyl)ethyl)-3-(4-((isoindolin-5-ylmethyl)sulfonyl)phenyl)urea], the concentration for half-maximal inhibition (IC50) in data set [1] is 24 nM. The “Metabolic Stability Study H = human” value in data set [2] came out at 25.7 µL/min/mg. Further, in data set [3], the “Metabolic Stability Study M = mouse” value was found to be 23.6 µL/min/mg. Besides, the EC50 is 8.8 nM in data set [4] (setting [6]) and over 30000 nM in data set [5] (setting [7]).
Turning to `CC(NC(=O)Nc1ccc(S(=O)(=O)Cc2ccc3c(c2)CNC3)cc1)c1ccccc1F` (stereo not shown) [H1272, 1-(1-(2-fluorophenyl)ethyl)-3-(4-((isoindolin-5-ylmethyl)sulfonyl)phenyl)urea], in data set [1], the IC50 was determined as 23.5 nM. The “Metabolic Stability Study H = human” value in data set [2] came out at 18.4 µL/min/mg. Further, the “Metabolic Stability Study M = mouse” value in data set [3] is 18.6 µL/min/mg. Also, the figures for the EC50 in data set [4] (setting [6]) and in data set [5] (setting [7]) were 5.3 nM and over 30000 nM, respectively.
In the same order, the values of `CC(NC(=O)Nc1ccc(S(=O)(=O)Cc2ccc(CN3CCCC3)cc2)cc1)c1ccccc1` (stereo not shown) [H1276, 1-(1-phenylethyl)-3-(4-((4-(pyrrolidin-1-ylmethyl)benzyl)sulfonyl)phenyl)urea] are 76 nM, 109.7 µL/min/mg, 247 µL/min/mg, 23.4 nM and over 30000 nM.
In the case of `CCc1ccc(Cl)c(C(C)NC(=O)Nc2ccc(S(=O)(=O)Cc3ccc4c(c3)CNC4)cc2)c1` (stereo not shown) [H1281, 1-(1-(2-chloro-5-ethylphenyl)ethyl)-3-(4-((isoindolin-5-ylmethyl)sulfonyl)phenyl)urea], the half-inhibitory concentration (IC50) in data set [1] came out at 39 nM. Further, the “Metabolic Stability Study H = human” value in data set [2] came to 63.8 µL/min/mg. Moreover, the “Metabolic Stability Study M = mouse” value in data set [3] stood at 47.8 µL/min/mg. The EC50 is 15.3 nM in data set [4] (setting [6]) and over 30000 nM in data set [5] (setting [7]).
Take `CCc1ccc(Cl)c(C(C)NC(=O)Nc2ccc(S(=O)(=O)Cc3ccc4c(c3)CN(C)C4)cc2)c1` (stereo not shown) [H1286, 1-(1-(2-chloro-5-ethylphenyl)ethyl)-3-(4-(((2-methylisoindolin-5-yl)methyl)sulfonyl)phenyl)urea]: the concentration for half-maximal inhibition (IC50) in data set [1] was determined as 39.5 nM. In data set [2], the “Metabolic Stability Study H = human” value was 251.8 µL/min/mg. In addition, the “Metabolic Stability Study M = mouse” value in data set [3] turned out to be 162.4 µL/min/mg. Further, the EC50 in data set [4] (setting [6]) was 24.3 nM; in data set [5] (setting [7]), over 30000 nM.
`C[C@H](NC(=O)Nc1ccc(S(=O)(=O)Cc2ccc3c(c2)CN(C)C3)cc1)c1ccccc1` [H1299, (S)-1-(4-(((2-methylisoindolin-5-yl)methyl)sulfonyl)phenyl)-3-(1-phenylethyl)urea]: the IC50 in data set [1] was 192 nM. For the same compound, in data set [2], the “Metabolic Stability Study H = human” value turned out to be 71.5 µL/min/mg. Also, the “Metabolic Stability Study M = mouse” value in data set [3] turned out to be 50.9 µL/min/mg. The figures for the EC50 in data set [4] (setting [6]) and in data set [5] (setting [7]) were 102 nM and over 30000 nM, respectively.
For `CC(NC(=O)Nc1ccc(S(=O)(=O)Cc2ccc3c(c2)CN(C)C3)cc1)c1cccc2ccccc12` (stereo not shown) [H1302, 1-(4-(((2-methylisoindolin-5-yl)methyl)sulfonyl)phenyl)-3-(1-(naphthalen-1-yl)ethyl)urea], the IC50 in data set [1] was determined as 5.7 nM. Besides, in data set [2], the “Metabolic Stability Study H = human” value was 201.7 µL/min/mg. In data set [3], the “Metabolic Stability Study M = mouse” value worked out at 164.1 µL/min/mg. Further, the EC50 is 4.7 nM in data set [4] (setting [6]) and over 30000 nM in data set [5] (setting [7]).
In the same order, the values of `C[C@H](NC(=O)Nc1ccc(S(=O)(=O)Cc2ccc3c(c2)CCNCC3)cc1)c1ccccc1` [H1306, (S)-1-(1-phenylethyl)-3-(4-(((2,3,4,5-tetrahydro-1H-benzo[d]azepin-7-yl)methyl)sulfonyl)phenyl)urea] are 62 nM, 31.2 µL/min/mg, 19.6 µL/min/mg, 74.6 nM and over 30000 nM.
In the case of `C[C@@H](NC(=O)Nc1ccc(S(=O)(=O)Cc2ccc3c(c2)CN(C)C3)cc1)c1ccccc1` [H1356, (R)-1-(4-(((2-methylisoindolin-5-yl)methyl)sulfonyl)phenyl)-3-(1-phenylethyl)urea], the “Metabolic Stability Study H = human” value in data set [2] amounted to 382.5 µL/min/mg. In addition, the “Metabolic Stability Study M = mouse” value in data set [3] amounted to 126 µL/min/mg. For the same compound, the EC50 in data set [5] (setting [7]) was over 30000 nM.
`CC(NC(=O)Nc1c(F)cc(S(=O)(=O)Cc2ccc3c(c2)CNC3)cc1F)c1ccccc1.O=C(O)C(F)(F)F` (stereo not shown) [H1404, 1-(2,6-difluoro-4-((isoindolin-5-ylmethyl)sulfonyl)phenyl)-3-(1-phenylethyl)urea]: in data set [1], the IC50 worked out at 1620 nM. In addition, the “Metabolic Stability Study H = human” value in data set [2] worked out at 10 µL/min/mg. For the same compound, the “Metabolic Stability Study M = mouse” value in data set [3] came out at 19 µL/min/mg. Further, the EC50 in data set [5] (setting [7]) is over 30000 nM.
With `COc1cc(S(=O)(=O)Cc2ccc3c(c2)CCNC3)ccc1NC(=O)N[C@H](C)c1cccc(Cl)c1Cl` [H1481, (R)-1-(1-(2,3-dichlorophenyl)ethyl)-3-(2-methoxy-4-(((1,2,3,4-tetrahydroisoquinolin-6-yl)methyl)sulfonyl)phenyl)urea], the “Metabolic Stability Study H = human” value in data set [2] was under 10 µL/min/mg. For the same compound, the “Metabolic Stability Study M = mouse” value in data set [3] was determined as 13.2 µL/min/mg. For the same compound, the EC50 in data set [4] (ghrelin inverse agonist potency, read-out: Activity EC50) is 0.2 nM; in data set [5] (ghrelin agonist potency, read-out: Activity EC50/EMax), over 30000 nM.

For the origin of these results see US10501479B2, “Benzenesulfonyl-asymmetric ureas and medical uses thereof” (HELSINN HEALTHCARE SA, priority 2016, dated 2019).
